Series [1] relates to CD4+ lymphocytes. The conditions noted are these: daily x5 schedule, low malignant lymphomas; cited from earlier work.
Series [2] relates to PHA-activated T-lymphocytes (peripheral blood mononuclear cells). As to the kind of experiment: T-lymphocyte colony formation (lymphocyte colony-growth assay, microagar culture). The format is cell-based. To be noted: 168 h, PBMC, colonies scored after 7 days, read-out: 50% inhibition of PHA-induced lymphocyte proliferation (colony formation). The method, then: dFdC is commercially available. […] Aye, Blood 58, 1043 (1981). Therefore, peripheral blood mononuclear cells (PBMC) were cultured with phytohemagglutinin (PHA) and varying concentrations of dFdC in the microagar culture system described by Petzer et al., Blood 78, 2583 (1991). PBMCs were suspended in Iscove s medium containing 20% fetal calf serum and 0.3% agar. Subsequently 250 μl aliquots of this suspension containing 2×10^5 PBMCs were plated in multiwell tissue culture plates. The agar was allowed to solidify at room temperature and then was overlayered with 250 μl medium containing 0.5% PHA and 0.5% 2-mercaptoethanol (1×10^−4 mol/l final concentrations). The cultures were incubated at 37° C. in a fully humidified atmosphere containing 5% CO2 and colonies were scored using an inverted microscope after 7 days of incubation.

The conditions of series [3]: daily x5 schedule, 9 mg/m^2 dose level; cited from earlier work.
The conditions of series [4]: i.v. over 30 minutes once per week for 3 weeks followed by a week's rest; cited from earlier work.
Series [5] has as its system heart allografts. Kind of series: Rat heart-transplantation model (heterotopic heart allograft). The format is in vivo. To be noted: for Graft rejection: histology graded by ISHT criteria. Also noted: Leucopenia: dose or concentration left out as unconfirmed. As for the experimental part:
Inbred male LEWIS (LEW) rats and Brown Norway (BN) rats weighing 200-270 g were obtained from “Zentralinstitut fur Versuchstierzucht”, Hannover, Germany. Heterotopic heart transplants were performed using microsurgical techniques as described by Schmid et al., Eur. Surg. […] Postoperatively, all animals were given water and standard rat diet ad libitum.
dFdC was administered subcutaneously once daily for 50 consecutive days beginning immediately after surgery. […] The control group (n=8) received no treatment.
The beating activity of heart allografts was determined by daily palpation. Animals were sacrificed by an overdose of ether whenever cardiac allografts stopped beating and hearts and all vital organs were excised for histology. Multiple sections of the left ventricle of the transplant and of every native organ were fixed in 4% buffered formalin. Paraffin-embedded probes were cut into 5-jim-thick sections and stained with hematoxylin and eosin. Slides were assessed by a pathologist blinded to the study and rejection was graded according to the ISHT criteria.

Series [6] has as its system CD4+ and CD8+ lymphocyte subsets. The conditions noted are these: after repeated applications; cited from earlier work.

Regarding `Nc1nc(Cl)nc2c1ncn2[C@H]1C[C@H](O)[C@@H](CO)O1` [2-chlorodeoxyadenosine], in series [1], the “Duration of severe suppression of CD4+ lymphocytes” value is “more than 12 months”.
As to `Nc1ccn([C@@H]2O[C@H](CO)[C@@H](O)C2(F)F)c(=O)n1` [dFdC, 2′-deoxy-2′,2′-difluorocytidine], the IC50 in series [2] is 3.25 ± 0.9 nM. In addition, the Nonhaematologic toxicity result in series [3] was “significant amount of nonhaematologic toxicity including sporadic fever and severe hypertension”. The “Myelosuppression with severe infections (WHO grade III/IV), share of patients” value in series [4] was “less than 1%”. Also, the Allograft survival in series [5] (25 μg/kg/day s.c. once daily for 50 days) worked out at 7.3 days; in series [5] (50 μg/kg/day s.c. once daily for 50 days), 9.2 days; in series [5] (75 μg/kg/day s.c. once daily for 50 days) it was 15.7 days; in series [5] (100 μg/kg/day s.c. once daily for 50 days) it was 152.8 days; in series [5] (125 μg/kg/day s.c. once daily for 50 days), 144.2 days; in series [5] (150 μg/kg/day s.c. once daily for 50 days), 41.5 days. The Allograft survival is 16.0 days in series [5] (300 μg/kg/day s.c. once daily for 50 days), 10.5 days in series [5] (600 μg/kg/day s.c. once daily for 50 days) and 4.0 days in series [5] (6000 μg/kg/day s.c. once daily for 50 days). The Graft rejection result is “Grade IV” in series [5] (25 μg/kg/day); “Grade IV” in series [5] (50 μg/kg/day); “Grade IV” in series [5] (75 μg/kg/day); “Grade IV” in series [5] (100 μg/kg/day); “Grade IV” in series [5] (125 μg/kg/day); “None” in series [5] (150 μg/kg/day). Further, the Graft rejection result in series [5] (300 μg/kg/day), in series [5] (600 μg/kg/day) and in series [5] (6000 μg/kg/day) was “None” each time. For the same compound, the “Graft survival compared to untreated controls” value in series [5] (all animals given between 75 and 600 μg/kg BW) is reported as “prolonged”. Also, the Leucopenia result in series [5] (all animals of all dose groups) is listed as “Dose-dependent leucopenia occurred in all animals of all groups”. In addition, the Reversibility of leucopenia result in series [5] (animals given less than 150 μg/kg) was “reversible”. In series [5] (more than 125 μg/kg BW), the “Toxicity at high dose” value was “overimmunosuppression and irreversible myelotoxicity”. In addition, the “Reduction of CD4+ and CD8+ lymphocyte subsets” value in series [6] is “no significant reduction”.
